The record followed here is a melting point compilation (Tetko et al.; mined from patent text by program, amines drawn as free bases though some values may be those of a salt).

Turning to `Cc1cc2c3c(ccc2[nH]1)OCC(CN1CC=C(c2c[nH]c4ccccc24)CC1)O3` (configuration not stated), the melting point was in the range of 212 to 215 °C.
The result for `O=C(O)C(=O)c1ccc(OCCOc2ccc([N+](=O)[O-])cc2)cc1` reads 129 to 130 °C; that for `Cc1ccc(O[C@@H](Cc2ccc(O)cc2)C(=O)N2C(=O)OC[C@@H]2Cc2ccccc2)cc1`, 135 to 136 °C; that for `Cc1ccccc1[PH](=O)c1ccccc1C`, 91.3 °C.
In the case of `O=C(O)C1CSC(=S)N1` (configuration not stated), the melting point lay in the range of 183 to 184 °C.
Turning to `CCCCc1cc2c(=O)n3cc(C(=O)OC)ccc3nc2s1`, the melting point lay in the range of 137 to 138 °C.
`Nc1ncnc2c1c(Cl)cn2COCCO`: the melting point fell in the range of 149 to 150 °C.
`CCSc1nc2cc(Cl)ccc2s1` came in with a melting point of 49 to 50 °C.
Molecule `CC(=O)SCC(Cc1ccccc1)C(=O)Nc1cc(Cl)ccc1C(=O)O` (configuration not stated) showed a melting point of 143 to 144 °C.
Take `Cc1ccc(Cn2c3c(c4cc(-c5cccc(C)c5)ccc42)C(=O)C(=O)OC3)cc1`: the melting point was in the range of 216 to 217 °C.
The figure for `CC(C)NCC(O)COc1ccc(CCO)cc1` (configuration not stated) is 77 to 78 °C; for `Nc1nc(N)c2ncn([C@H]3C=C[C@@H](O)C3)c2n1` (racemic) it is 167 to 170 °C; for `COC(=O)c1cccc(S(N)(=O)=O)c1I` it is 155 to 157 °C.
The figure for `C=CCc1cc(C(C)=O)c(O)cc1OCCCCCC(=O)OC` is 64 to 65 °C; for `CCc1ccc(-c2c3ccccc3c(-c3ccc(CC)cc3)c3cc(Cl)ccc23)cc1` it is 214 to 216 °C.
The molecule `CCOC(=O)C(=O)Nc1cc(C(F)(F)F)cc(C(F)(F)F)c1[N+](=O)[O-]` displayed a melting point of 115 °C.
For the molecule `O=C1c2ccccc2C(=O)N1Oc1ccc(-c2nc(=O)c3ccccc3s2)cn1`, the melting point lay within 212 to 213 °C.
The figure for `CCCOC(=O)C1CCC2C3CCC4CC(O)C(O)CC4(C)C3C(NCCC(C)C)CC12C` (configuration not stated) is 140 to 142 °C.
Molecule `Cn1cc(C2CCC(=O)C2)c2cc(C#N)ccc21` (configuration not stated) returned a melting point of 167 to 168 °C.
The figure for `O=C1C[C@@H](C(=O)OCc2ccccc2)N(C(=O)OCc2ccccc2)C1` is 55 to 56 °C; for `CC(C)(C)OC(=O)N1C2C=CC(C2)N1CC(O)C(Cc1ccccc1)NC(=O)OCc1ccccc1` (mixture of isomers) it is 111 to 113 °C; for `CC(F)(F)c1cccc(Oc2ccc(C3CCCN4CCS(=O)(=O)N=C34)cc2)c1` (configuration not stated) it is 117 to 118 °C.
The figure for `CCOC(=O)c1c(-c2ccccc2)cn2ccccc12` is 101 to 103 °C; for `Cc1cnc2nc(S(=O)(=O)Cl)nn2c1` it is 106 to 108 °C; for `CCOc1ccc(S(=O)c2ccccc2)cc1[N+](=O)[O-]` (configuration not stated) it is 119 to 121 °C.
The molecule `COc1ccc(-c2nc(C(=O)c3ccc(N)c(C(=O)O)c3)n3ccccc23)cc1` yielded a melting point of 296 °C.
The figure for `CC(=O)Nc1nc(C)c(S(=O)(=O)NCCN(C)C)s1` is 143 °C; for `CCOC(=O)c1ccc(N=CN(C)c2ccc(C(=O)OCC)cc2)cc1` it is 89 to 91 °C.
The figure for `Cc1cccc(-c2[nH]c(C(C)C)nc2-c2ccc(F)c(-c3ccc4c(c3)CCS4(=O)=O)c2)n1` is 119 to 123 °C; for `Nc1cc(Cl)cc(Cl)c1C(=O)NCc1ccccc1F` it is 154 to 158 °C; for `NC(CN1C(=O)C2(COc3cc4c(cc32)OCO4)c2c(Cl)cccc21)=NO` (configuration not stated) it is 180 to 185 °C.
Consider `CCNC(=O)CN(C)C(=O)[C@H](C)NC(=O)CC`, for which the melting point lay in the range of 149 to 151 °C.
The figure for `COC(=O)c1snc(-c2cc(C(F)(F)F)cc(C(F)(F)F)c2)c1C(=O)OC` is 71 to 74 °C; for `C=CCn1cc2c(c1)-c1ccc(Cl)cc1C(c1ccccc1F)=NC2` it is 100 to 102 °C.
In turn, `Cc1ccc(C[C@@H](C(=O)O)[C@@H](O)c2ccc(F)cc2)cc1OC(F)(F)C(F)F` (racemic) displayed a melting point of 102 to 103 °C.
The result for `COC(=O)c1ccc(Cn2nc(C(C)(C)C)cc2C(C)(C)C)cc1` reads 135 to 136 °C; that for `C[C@@H](O)C(=O)NC[C@H]1CCc2ccc(S(=O)(=O)c3ccccc3)cc2O1`, 130 to 132 °C.
`CCc1ccc2oc(C(=O)Nc3ccc(-c4ccc(S(=O)(=O)NC(C(=O)OC)C(C)C)cc4)cc3)c(C)c2c1O` (configuration not stated) came in with a melting point of 75 to 80 °C.
The result for `COc1ccc(CCNCC(O)c2ccccc2OC)cc1OC` (configuration not stated) reads 88 °C.
`CCOC(=O)c1cc(-c2ccc(OC)cc2)nn(Cc2ccc(Cl)cc2Cl)c1=O` displayed a melting point of 136 °C.
The result for `CC(=O)Nc1ccc(OCCN2CC=C(c3ccc(F)cc3)CC2)cc1` reads 96 to 98 °C; that for `O=C(c1cccc2c1NCC2)N1CCN(c2cccc(C(F)(F)F)c2)CC1`, 115 to 118 °C; that for `Cc1cc(-c2noc(CS(C)(=O)=O)n2)ccc1Br`, 130 to 132 °C.
`CNS(=O)(=O)CC(=O)C1=C(C)NC(C)=C(C(=O)OC)C1c1cccc([N+](=O)[O-])c1` (configuration not stated): the melting point fell in the range of 173 to 176 °C.
The result for `CN1CCC(C2(O)c3cc(F)ccc3CCc3cccnc32)CC1` (configuration not stated) reads 126 to 127 °C; that for `COC(=O)C(=[N+]=[N-])c1ccc(S(C)(=O)=O)c(Cl)c1`, 103 to 106 °C; that for `O=C(Nc1ccc(-c2ncc(-c3ccc(NC(=O)C4CCCCCC4)cc3)[nH]2)cc1)c1ccc(F)cc1`, 314 to 316 °C.
The figure for `CCN1C(=O)Cc2cc(Cl)cnc21` is 78 to 82 °C.
The result for `O=CCC(F)(F)CN1C(=O)c2ccccc2C1=O` reads 76 to 78 °C; that for `CCNc1nc2n(n1)CCc1ccccc1-2`, 100 to 101 °C; that for `O=C(c1ccoc1)c1ccc(O)c(Cl)c1Cl`, 138 to 142 °C.
Turning to `CC(C)c1ccc(C(=O)Cc2c(Cl)cccc2Cl)c(C(C)C)c1OS(N)(=O)=O`, the melting point is 203 to 205 °C.
The result for `CC(C)CCn1cc(C(=O)Nc2nccs2)c2ccc(Cl)cc21` reads 179 to 180 °C.
The result for `CC1(C)Oc2cc3c(cc2O1)OC(C)(C)O3` reads 122 °C; that for `CC(C#N)c1ccc2oc(=S)[nH]c2c1` (configuration not stated), 173 to 176 °C; that for `CCCCCCCCCCOc1cc(C(=O)O)c(OCCCCCCCCCC)cc1C(=O)O`, 136 to 137 °C.
`Cc1noc(NS(=O)(=O)c2ccccc2-c2ccc(C(F)(F)C(C)C)cc2)c1C` yielded a melting point of 52 to 58 °C.
The figure for `CN(C(=O)Nc1nc(OCC(F)(F)F)cc(OCC(F)(F)F)n1)c1ccc(C(F)(F)F)s1` is 99 to 101 °C; for `Cc1c(NC(=O)c2cc3c(s2)CCCC3)cccc1-c1cn(C)c(=O)c(Br)n1` it is 240 to 241 °C; for `CCOC(=O)c1ccc(CC#N)cc1Cl` it is 60 °C.
`CCCn1nc(Cc2ccc(-c3ccccc3-c3nnn(C(c4ccccc4)(c4ccccc4)c4ccccc4)n3)cc2)c(C(=O)OCC)c1C(C)C` had a melting point of 158 to 159 °C.
Regarding `CCOC(=O)C1OC1c1ccc(OC)cc1` (configuration not stated), the melting point fell in the range of 40 to 43 °C.
With `COC(=O)CN(C)C(=O)CC(Cc1cccc2ccccc12)C(=O)NC(Cc1c[nH]cn1)C(=O)NC(CC(C)C)C(O)C(=O)OC` (mixture of isomers), the melting point was 75 to 79 °C.
The figure for `Nc1ccc(CCC(=O)c2ccc(F)cc2)cc1` is 54 to 55 °C.
The figure for `Cc1cn(CCCCc2ccccc2)c2ccc(C(=O)Nc3cccc4c(=O)cc(-c5nnn[nH]5)oc34)cc12` is 186 to 187 °C.
Molecule `NNC(=S)N1CCN(c2nc3cccccc-3n2)CC1` yielded a melting point of 224 to 228 °C.
The result for `CCOC(=O)C1=C(C)NC(=O)N(C(=O)OCC)C1c1cccc([N+](=O)[O-])c1` (configuration not stated) reads 107 to 108 °C; that for `c1cncc(-c2noc(-c3ccco3)n2)c1`, 110 to 114 °C.
`CCc1nc2cc(C(F)(F)F)c(Cl)cc2n1-c1ccc(CCOC(=O)NS(=O)(=O)c2cccc3c(N(C)C)cccc23)cc1` displayed a melting point of 203 °C.
`CC(=O)OCC1OC(SCC#N)C(OC(C)=O)C(OC(C)=O)C1OC(C)=O` (configuration not stated) showed a melting point of 97 °C.
Molecule `O=C(Cl)c1c(Cl)cc([N+](=O)[O-])cc1Cl` returned a melting point of 63 to 65 °C.
In the case of `CC(C)n1nc(Cl)cc1O`, the melting point is 138 to 140 °C.
The result for `CCOC(=O)c1csc(Nc2nc(C(C)(C)C)c(O)c(C(C)(C)C)n2)n1` reads 204 to 206 °C; that for `O=C(O)COc1cc2c(=O)c3c(F)cccc3oc2cc1Cl`, 242 to 245 °C.
`Cc1cc(-c2ccc(C#N)cc2)c(C)n1Cc1cnc(Cl)c(COC(=O)CCC(=O)O)c1` gave a melting point of 201 to 204 °C.
For `Cc1c(NC(=O)c2ccc(-c3ccc(F)cc3)nc2)ccc2cc(CN3CCCC3)cnc12`, the melting point lay in the range of 207 to 209 °C.
The result for `CN(C)c1nc(NCc2ccc(NC(=O)c3ccc(F)cc3)cc2)c2ccc(-c3ccccc3C=O)cc2n1` reads 128 °C; that for `CCC#CCOc1cc2c(cc1/C=C/C=C/C(C)=C/C(=O)O)C(C)(C)CCC2(C)C`, 208 to 209 °C.
The result for `CC(C)(C)OP(=O)(Cc1ccc(Br)cc1)OC(C)(C)C` reads 45 °C; that for `COC(=O)c1ccc(Br)cc1OC(=S)N(C)C`, 118 °C.
The figure for `Cc1c(-c2ccncn2)nc2n(c1=O)CCCN2` is 206 to 207 °C; for `CO/C(=C\C=C\c1cc2ccccc2s1)C(=O)NC1CC(C)(C)N(C)C(C)(C)C1` it is 240 °C; for `COc1ccccc1N1CCN(CC2=Cc3ccccc3CC2)CC1` it is 84 to 85 °C.
On to `CN(C)C1N(C)C(=O)NC(=O)N1c1cc(OCc2ccccc2)c(Cl)cc1F` (configuration not stated), for which the melting point lay in the range of 193 to 194 °C.
The figure for `CC(=O)Nc1ccc(C(C)(C)C(=O)O)cc1` is 170 to 171 °C; for `O=C(O)/C=C\C(=O)Nc1ccc2c(=O)n3c(nc2c1)C(=Cc1ccccc1)CC3` it is 210 to 230 °C.
For the molecule `Cc1cc(-n2ccnc2)c2cccc(OCc3c(Cl)ccc(S(=O)(=O)N4CC[C@@H](O)C4)c3Cl)c2n1`, the melting point was 166 °C.

By melting point is commonly meant the temperature of the solid-liquid transition.
